The target of test [1] is T1, human GLP-1R (Homo sapiens, UniProt P43220).
T1 construct: host or cells: HEK293T
Briefly: cAMP assay (CAMYEL BRET sensor), GLP-1R. The class given is cell-based. Here is the method:
(§1) The cells were seeded (700,000 cells/well) in 6-well plates and incubated to ∼70% confluency in complete media supplemented with 10% FBS and 1% Pen-Strep. […] Baseline measurements were taken after 5 min of incubation with coelenterazine-h or NanoGlo. The cells were then treated with a vehicle or the respective agonists. […] The temporal data of the vehicle-corrected agonist measurement was then normalized to the baseline reading of the same well. The first BRET reading following treatment with agonist/vehicle was the subsequent measurement after the zero time point. Positive or negative incremental areas under the curves (+iAUC/-iAUC) were calculated where noted. Each experiment was independently performed at least three times, with at least two technical replicates for each group.
(§2) CAMYEL, a cAMP sensor using YFP-Epac-RLuc was utilized to quantify cAMP accumulation with the temporal resolution. Then, 500 ng of CAMYEL DNA was co-transfected with 500 ng of DNA of untagged GLP-1R or GIPR per well in a 6-well plate. The experiments were performed in the absence of 3-isobutyl-1-methylxanthine (IBMX).
(§3) Data are represented as means ± S.E.M. Each experiment was independently conducted at least three times, each with at least two technical replicates. […] Dose responses were fitted using non-linear regression. pEC50 and EC50 values were calculated using GraphPad Prism 8.0 (GraphPad, San Diego, CA, USA). Statistical analyses were calculated in GraphPad 8.0 using one-way analysis of variance (ANOVA) and corrected with Tukey's or Bonferroni's multiple comparison test. Differences are considered significant with an adjusted p value < 0.05.

Test [2] deals with T1, human GLP-1R. Briefly: Gαq (mini-G) recruitment BRET assay, GLP-1R. The class given is cell-based. The settings on record: HEK-293T, HEK293T, GLP-1R-GFP + NLuc-mini-G, +iAUC 60 min, mean ± SEM, at least 3 experiments.
In test [3] the target is T1, human GLP-1R. Kind of test: GPCR internalization assay (loss of BRET with Venus-KRAS), GLP-1R. The test is classed as cell-based. Conditions: HEK-293T, HEK293T, hGLP-1R-Rluc8 + Venus-KRAS, iAUC 60 min, mean ± SEM, at least 3 experiments, SEM, read-out: Receptor Internalization Emax (% GLP-1). (BRET reads energy transfer from a luciferase to a nearby fluorophore.)
The target in test [4] is T1, human GLP-1R. Briefly: Gαs (mini-G) recruitment BRET assay, GLP-1R. The class given is cell-based. The settings on record: HEK-293T, HEK293T, GLP-1R-GFP + NLuc-mini-G, +iAUC 60 min, mean ± SEM, at least 3 experiments.
Test [5] deals with T2, human GIPR (Homo sapiens, UniProt P48546).
T2 sequence (P48546 22-466): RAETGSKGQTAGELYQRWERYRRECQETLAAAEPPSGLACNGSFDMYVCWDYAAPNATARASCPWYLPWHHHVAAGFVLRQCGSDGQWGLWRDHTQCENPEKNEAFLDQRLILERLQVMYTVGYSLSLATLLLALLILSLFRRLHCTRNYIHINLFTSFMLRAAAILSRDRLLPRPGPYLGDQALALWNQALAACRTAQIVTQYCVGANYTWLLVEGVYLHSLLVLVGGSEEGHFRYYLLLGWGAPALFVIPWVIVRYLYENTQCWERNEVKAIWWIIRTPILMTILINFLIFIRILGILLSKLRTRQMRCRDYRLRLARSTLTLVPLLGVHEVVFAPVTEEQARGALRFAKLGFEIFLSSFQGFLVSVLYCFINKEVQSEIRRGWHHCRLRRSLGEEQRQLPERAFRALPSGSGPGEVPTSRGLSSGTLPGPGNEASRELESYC
Briefly: cAMP assay (CAMYEL BRET sensor), GIPR. The test is classed as cell-based. The protocol:
as §1, §2, §3

In test [6] the target is T2, human GIPR. Kind of test: Gαq (mini-G) recruitment BRET assay, GIPR. The class given is cell-based. Conditions: HEK293T, GIPR-GFP + NLuc-mini-G, +iAUC 60 min.
For test [7], the target named is T2, human GIPR. Briefly: GPCR internalization assay (loss of BRET with Venus-KRAS), GIPR. The class given is cell-based. The settings on record: HEK293T, hGIPR-Rluc8 + Venus-KRAS, iAUC 20 min, mean ± SEM, SEM.
The target of test [8] is T2, human GIPR. Briefly: β-arrestin 1 recruitment BRET assay, GIPR. The class given is cell-based. Here is the method:
as §1
(§4) Co-localization of β-arrestin1/2-RLUC8 with GLP-1R-GFP or GIPR-GFP was assessed.
as §3

Test [9] has as its target T2, human GIPR. Briefly: β-arrestin 2 recruitment BRET assay, GIPR. The class given is cell-based. Conditions: HEK293T, GIPR-GFP + β-arrestin2-RLUC8, BRET, +iAUC 30 min. Here is the method: as §1, §4, §3
In general terms: Activated receptors often draw arrestin, which recruitment assays turn into a signal.

Test [10] concerns the target T2, human GIPR. Briefly: Gαs (mini-G) recruitment BRET assay, GIPR. The settings on record: HEK293T, GIPR-GFP + NLuc-mini-G, +iAUC 60 min. The class given is cell-based.
For test [11], the target named is T1, human GLP-1R. Briefly: Endosomal trafficking assay (Venus-Rab5/7/11 co-localization), GLP-1R, HEK293T. The class given is cell-based. The settings on record: six experiments. Here is the method: GPCR endosomal trafficking was assessed by measuring the ligand-stimulated gain in resonance energy transfer between Venus-Rab5/7/11 and hGLP-1R-RLUC8 or hGIPR-RLUC. Then, 100 ng of the respective Venus-Rab subtype DNA and 100 ng of hGLP-1R-RLUC8 or hGIPR-RLUC8 DNA were co-transfected into each well in a 6-well plate.

Test [12] has as its target Human GLP-1R-GFP (human) (UniProt P43220).
For test [13] the target is unchanged. This is another data set of the same source.

Sequence of Human GLP-1R-GFP (human) (P43220 24-463): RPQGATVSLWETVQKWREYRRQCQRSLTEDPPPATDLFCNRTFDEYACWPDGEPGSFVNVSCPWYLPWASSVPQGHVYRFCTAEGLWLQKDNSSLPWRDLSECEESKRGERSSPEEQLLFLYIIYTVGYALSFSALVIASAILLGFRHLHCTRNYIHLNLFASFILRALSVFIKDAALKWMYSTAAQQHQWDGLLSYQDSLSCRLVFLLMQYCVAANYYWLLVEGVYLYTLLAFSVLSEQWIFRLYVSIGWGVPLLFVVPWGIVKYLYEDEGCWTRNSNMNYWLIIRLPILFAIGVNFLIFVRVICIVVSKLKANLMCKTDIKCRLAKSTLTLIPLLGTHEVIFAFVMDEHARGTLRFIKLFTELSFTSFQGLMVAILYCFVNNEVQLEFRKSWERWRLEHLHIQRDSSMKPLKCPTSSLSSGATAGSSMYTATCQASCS
T1 sequence (P43220 24-463): as above

Consider `CC[C@H](C)[C@H](NC(=O)[C@H](CC(C)C)NC(=O)[C@H](Cc1c[nH]c2ccccc12)NC(=O)[C@H](CCC(N)=O)NC(=O)[C@@H](NC(=O)[C@H](Cc1ccccc1)NC(=O)[C@H](C)NC(=O)[C@H](CCCCNC(=O)COCCOCCNC(=O)COCCOCCNC(=O)CC[C@H](NC(=O)CCCCCCCCCCCCCCCCCCC(=O)O)C(=O)O)NC(=O)[C@H](CCC(N)=O)NC(=O)[C@H](C)NC(=O)[C@@H](NC(=O)[C@H](CCCCN)NC(=O)[C@H](CC(=O)O)NC(=O)[C@H](CC(C)C)NC(=O)C(C)(C)NC(=O)[C@@H](NC(=O)[C@H](CO)NC(=O)[C@H](Cc1ccc(O)cc1)NC(=O)[C@H](CC(=O)O)NC(=O)[C@H](CO)NC(=O)[C@@H](NC(=O)[C@H](Cc1ccccc1)NC(=O)[C@@H](NC(=O)CNC(=O)[C@H](CCC(=O)O)NC(=O)C(C)(C)NC(=O)[C@@H](N)Cc1ccc(O)cc1)[C@@H](C)O)[C@@H](C)O)[C@@H](C)CC)[C@@H](C)CC)C(C)C)C(=O)N[C@@H](C)C(=O)NCC(=O)NCC(=O)N1CCC[C@H]1C(=O)N[C@@H](CO)C(=O)N[C@@H](CO)C(=O)NCC(=O)N[C@@H](C)C(=O)N1CCC[C@H]1C(=O)N1CCC[C@H]1C(=O)N1CCC[C@H]1C(=O)N[C@@H](CO)C(N)=O` [tirzepatide, reference compound], for which the Emax in test [1] (HEK-293T, HEK293T transiently expressing untagged GLP-1R, CAMYEL sensor, no IBMX, +iAUC of 25 min response, 3-parameter fit, mean ± SEM, at least 3 experiments, SEM) amounted to 102 ± 4%; in test [2], 17%; in test [3], 24 ± 4%; in test [4] it was 31%; in test [6] (HEK-293T, mean ± SEM, at least 3 experiments, read-out: Gαq Recruitment Emax (% GIP)), 85%; in test [7] (HEK-293T, at least 3 experiments, read-out: Receptor Internalization Emax (% GIP)) it was 18 ± 1%. The Emax in test [10] (HEK-293T, mean ± SEM, at least 3 experiments, SEM, read-out: Gαs Recruitment Emax (% GIP)) stood at 43 ± 3%. Also, the EC50 in test [5] (HEK293T, GIPR, CAMYEL sensor, no IBMX, +iAUC 25 min, read-out: cAMP EC50) is 13.3 nM; in test [6] (mean ± SEM, SEM, read-out: Gαq Recruitment pEC50 (converted)) it was 132 nM; in [6] (read-out: Gαq Recruitment EC50) it was 164 nM; in [7] (read-out: Receptor Internalization pEC50 (converted)), 4.68 nM; in test [8] (HEK293T, GIPR-GFP + β-arrestin1-RLUC8, BRET, +iAUC 30 min; read-out: β-arr1 Recruitment EC50), above 1000 nM; in test [8] (HEK293T, GIPR-GFP + β-arrestin1-RLUC8, BRET, +iAUC 30 min; read-out: β-arr1 Recruitment pEC50 (converted)), above 1000 nM. Besides, the EC50 in test [9] (mean ± SEM, SEM, read-out: β-arr2 Recruitment pEC50 (converted)) was 39.8 nM; in test [10] (read-out: Gαs Recruitment EC50), 324 nM. Besides, in test [6] (mean ± SEM, at least 3 experiments, listed as Dual Agonist (Tirzepatide), SEM), the “Gαq Recruitment Emax (% GIP)” value was 71 ± 1 [-29]*^# % GIP. For the same molecule, the “total GLP-1R Rab5 co-localization, of that elicited by GLP-1 (7–36 amide)” value in test [11] (1 μM stimulation, hGLP-1R-Rluc8 + Venus-Rab5 (early endosomes), +iAUC) is 13%. Moreover, the “co-localization of GLP-1R with Rab7 positive (late) endosomes, of the response of GLP-1 (7–36 amide)” value in [11] (hGLP-1R-Rluc8 + Venus-Rab7, +iAUC) is reported as 24%. In addition, the “GLP-1R co-localization with Rab11-positive recycling endosomes, decrease vs GLP-1 (7–36 amide)” value in test [11] (hGLP-1R-Rluc8 + Venus-Rab11, +iAUC) stood at 54%.

As to Tirzepatide (peptide), in test [12], the GLP-1R internalization Emax, % of GLP-1 (7–36 amide) (loss of BRET between hGLP-1R-Rluc8 and Venus-KRAS, HEK293T) came out at 13%. In test [13], this molecule registered a GLP-1R co-localization with Rab5 early endosomes (BRET of hGLP-1R-Rluc8 with Venus-Rab5, HEK293T), 1 μM, % of GLP-1 (7–36 amide) of 13%; a GLP-1R co-localization with Rab7 late endosomes (BRET of hGLP-1R-Rluc8 with Venus-Rab7, HEK293T), % of GLP-1 (7–36 amide) of 24%; a GLP-1R co-localization with Rab11 recycling endosomes (BRET of hGLP-1R-Rluc8 with Venus-Rab11, HEK293T), decrease against GLP-1 (7–36 amide) of 54%.

For `CCCCCCCCCCCCCCCC(=O)NCCCC[C@H](NC(=O)[C@H](CO)NC(=O)[C@@H]1CCCN1C(=O)[C@@H]1CCCN1C(=O)[C@@H]1CCCN1C(=O)[C@H](C)NC(=O)CNC(=O)[C@H](CO)NC(=O)[C@H](CO)NC(=O)[C@@H]1CCCN1C(=O)CNC(=O)CNC(=O)[C@H](C)NC(=O)[C@H](CC(C)C)NC(=O)[C@H](CC(C)C)NC(=O)[C@H](Cc1c[nH]c2ccccc12)NC(=O)[C@H](CC(N)=O)NC(=O)[C@@H](NC(=O)[C@H](Cc1ccccc1)NC(=O)[C@H](CCC(=O)O)NC(=O)C(C)(C)NC(=O)[C@H](C)NC(=O)[C@H](C)NC(=O)[C@H](CCC(N)=O)NC(=O)[C@H](CCCCN)NC(=O)[C@H](CC(=O)O)NC(=O)[C@H](CC(C)C)NC(=O)[C@H](Cc1ccc(O)cc1)NC(=O)[C@@H](NC(=O)[C@H](CO)NC(=O)[C@H](Cc1ccc(O)cc1)NC(=O)[C@H](CC(=O)O)NC(=O)[C@H](CO)NC(=O)[C@@H](NC(=O)[C@H](Cc1ccccc1)NC(=O)[C@@H](NC(=O)CNC(=O)[C@H](CCC(=O)O)NC(=O)C(C)(C)NC(=O)[C@@H](N)Cc1ccc(O)cc1)[C@@H](C)O)[C@@H](C)CC)[C@@H](C)CC)C(C)C)C(N)=O` [fatty acyl-GIP], the EC50 was 181 nM in [1]; 1.34 nM in test [5]; above 1000 nM in test [8] (read-out: β-arr1 Recruitment EC50; HEK293T, GIPR-GFP + β-arrestin1-RLUC8, BRET, +iAUC 30 min); above 1000 nM in test [9] (read-out: β-arr2 Recruitment EC50). Moreover, in test [5] (HEK-293T, HEK293T transiently expressing untagged GIPR, CAMYEL sensor, no IBMX, +iAUC of 25 min response, 3-parameter fit, mean ± SEM, at least 3 experiments, SEM, read-out: cAMP Emax (% GIP)), the maximal response (Emax) amounted to 97 ± 2%.

Usually Emax stands for the greatest response seen or fitted, relative to the assay's reference.

The values are drawn from PMC7921015, “Spatiotemporal GLP-1 and GIP receptor signaling and trafficking/recycling dynamics induced by selected receptor mono- and dual-agonists” (Molecular Metabolism, 2021).
